Measured values from article PMC9737838, “Long-Distance Protonation-Conformation Coupling in Phytochrome Species” (Molecules, 2022).

Molecular target: T1, Agp1-PGP (photosensory module PAS-GAF-PHY of Agp1) (Agrobacterium fabrum, UniProt Q7CY45)
T1 construct: gene Atu1990; photosensory module PAS-GAF-PHY, residues 1-504, C-terminal His6 tag; apoprotein from E. coli assembled with biliverdin; plasmids with and without deletion of the first 9 residues used for mutagenesis
T1 sequence (Q7CY45 1-495): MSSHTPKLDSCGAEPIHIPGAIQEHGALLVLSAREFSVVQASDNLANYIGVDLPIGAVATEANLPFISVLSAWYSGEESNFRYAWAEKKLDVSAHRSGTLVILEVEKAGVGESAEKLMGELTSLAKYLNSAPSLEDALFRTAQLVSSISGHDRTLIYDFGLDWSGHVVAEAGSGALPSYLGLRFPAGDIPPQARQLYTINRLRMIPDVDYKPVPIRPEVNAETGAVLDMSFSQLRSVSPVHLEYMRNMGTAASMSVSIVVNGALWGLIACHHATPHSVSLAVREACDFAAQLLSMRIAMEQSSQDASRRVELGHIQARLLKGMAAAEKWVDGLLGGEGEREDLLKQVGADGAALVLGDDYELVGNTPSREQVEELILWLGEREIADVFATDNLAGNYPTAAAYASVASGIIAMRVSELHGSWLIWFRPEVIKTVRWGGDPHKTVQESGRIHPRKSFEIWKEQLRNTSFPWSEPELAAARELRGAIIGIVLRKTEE
Assay: UV-Vis absorption of the assembled holoprotein, pH titration
Format: binding
Details: covalent, Cys20; Pr state, 702 nm band, 300 mM NaCl, 50 mM Tris, 20 °C

C=CC1=C(C)/C(=C/C2=NC(=C\c3[nH]c(/C=C4\NC(=O)C(C)=C4C=C)c(C)c3CCC(=O)O)/C(CCC(=O)O)=C2C)NC1=O [BV, biliverdin]
UV-Vis absorption of the assembled holoprotein, pH titration: The apoprotein was expressed and assembled with BV according to established protocols
